Compound: CC1(COc2ccc3c(c2)ncn3-c2ccc3cccc(N4CCC(N)CC4)c3n2)COC1 [Crenolanib] + C[C@@H](Oc1cc(-c2cnn(C3CCNCC3)c2)cnc1N)c1c(Cl)ccc(F)c1Cl [Crizotinib] (partner 1 µM)
Experiment: relative viability (nuclei count vs DMSO), 5 days (fraction); higher = more cells survive
Details: first compound 0.01 µM
Procedure, shortened: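 Relative viability equals treated-well nuclei counts divided by vehicle-well nuclei counts. Counts came from 4× images of lung cancer cell lines grown in 1536-well plates for 5 days after pin-tool dosing on the day after seeding. Dosing used one drug alone or a fixed anchor-drug dose plus five library-drug doses (not always all listed) in √10 steps, and values are medians of duplicate plates.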

| Cell Line | relative viability |
| --- | --- |
| Calu-6 | 0.812 |
| HCC-44 | 0.823 |
| NCI-H1703 | 0.67 |
| NCI-H647 | 1.07 |
| LK-2 | 0.238 |
| NCI-H2126 | 1.05 |
| SK-MES-1 | 1 |
| HARA | 1.24 |
| COR-L23 | 0.678 |
| COR-L 105 | 0.845 |
| LC-2-ad | 0.439 |
| LU99A | 0.565 |
| ChaGo-K-1 | 1.16 |
| NCI-H2170 | 1.21 |
| NCI-H3122 | 0.27 |
| IA-LM | 0.925 |
| HCC-78 | 0.371 |
| A549 | 0.853 |
| NCI-H441 | 0.684 |
| NCI-H1299 | 0.998 |
| LCLC-103H | 1.12 |
| NCI-H1650 | 1.08 |

Same assay, conditions: first compound 0.03162 µM

| Cell Line | relative viability |
| --- | --- |
| NCI-H838 | 0.855 |
| NCI-H1651 | 0.924 |
| EBC-1 | 0.198 |
| NCI-H1734 | 0.708 |
| NCI-H2009 | 1.01 |
| EPLC-272H | 0.855 |
| PC-14 | 0.93 |
| LCLC-97TM1 | 0.355 |
| NCI-H596 | 1.07 |
| NCI-H2228 | 0.38 |
| EMC-BAC-2 | 0.774 |
| NCI-H2087 | 0.919 |
| Calu-6 | 0.814 |
| HCC-44 | 0.84 |
| NCI-H1703 | 0.712 |
| NCI-H647 | 1.03 |
| LK-2 | 0.24 |

| Cell Line | relative viability |
| --- | --- |
| NCI-H2126 | 1.04 |
| SK-MES-1 | 1 |
| HARA | 1 |
| COR-L23 | 0.722 |
| COR-L 105 | 0.604 |
| LC-2-ad | 0.444 |
| LU99A | 0.654 |
| ChaGo-K-1 | 1.17 |
| NCI-H2170 | 1.18 |
| NCI-H3122 | 0.288 |
| IA-LM | 0.9 |
| HCC-78 | 0.367 |
| A549 | 0.76 |
| NCI-H441 | 0.738 |
| NCI-H1299 | 0.914 |
| LCLC-103H | 1.03 |
| NCI-H1650 | 0.917 |

Same assay, conditions: first compound 0.1 µM

| Cell Line | relative viability |
| --- | --- |
| NCI-H838 | 0.821 |
| NCI-H1651 | 0.855 |
| EBC-1 | 0.188 |
| NCI-H1734 | 0.657 |
| NCI-H2009 | 1.01 |
| EPLC-272H | 0.877 |
| PC-14 | 0.825 |
| LCLC-97TM1 | 0.479 |
| NCI-H596 | 0.87 |
| NCI-H2228 | 0.407 |
| EMC-BAC-2 | 0.795 |
| NCI-H2087 | 0.809 |
| Calu-6 | 0.787 |
| HCC-44 | 0.739 |
| NCI-H1703 | 0.147 |
| NCI-H647 | 1.03 |
| LK-2 | 0.219 |
| NCI-H2126 | 0.978 |
| SK-MES-1 | 0.857 |
| HARA | 0.938 |
| COR-L23 | 0.577 |
| COR-L 105 | 0.731 |
| LC-2-ad | 0.56 |

Source: the supplement of paper PMC10307832
